The source of these data is patent US12122762B2, “Crystal form a of NHE3 inhibitor, preparation method therefor and application thereof” (SHENZHEN RENTAI PHARMATECH LTD., priority 2019, dated 2024).

Format in all cases: physicochemical
Data set [1] in a line: Hygroscopicity study by dynamic vapor sorption (DVS). As to conditions: 25° C. On the procedure:
• Model: BRUKER D8 DISCOVER (BRUKER, Germany) • Method: Cu target Ka, voltage: 40 KV, current: 40 mA, test angle: 3-45°, scanning step: 0.02, exposure time: 0.2 S, slit width of light pipe: 1 mm, slit width of detector: 2.7 mm. X-Ray Single Crystal Diffractometer SXRD • Model: BRUKER D8 QUEST (BRUKER, Germany) • Method: Cu target, voltage: 40 KV, current: 30 mA Differential Scanning Calorimeter DSC • Model: TA 250 (TA Instruments, US) • Method: heating at a rate of 10° C./min. Thermal Gravimetric Analysis TGA • Model: TA 550 (TA Instruments, US); • Method: heating at a rate of 10° C./min. Dynamic Vapor Sorption DVS • Model: DVS intrinsic (SMS, British); • Method: 25° C., relative humidity is stepped up at a rate of 10% per step, and the judgment standard is change in moisture content is <0.002% over a 10-minute period. Light Incubator • Model: MGC-100 (Shanghai Yiheng Scientific Instrument Co., Ltd.) Ultrasound Equipment • Model: KQ-3200 (Shanghai Alloy Ultrasonic Equipment Co., Ltd.) Programmable Temperature and Humidity Chamber for Drug Stability • Model: CMA-100C (Shanghai Puhan Precision Equipment Co., Ltd.) […]

A short description of data set [2]: High-temperature stability (60° C.), content by HPLC peak area normalization. On the procedure:
(§1) Follow tests are performed for the amorphous bulk pharmaceutical chemical of embodiment 1 and the crystal form A prepared in embodiment 2: • (1) Light stability: the test sample is placed in an environment having a temperature of 25° C. and a light condition of 4500 Lux for 5 days and 10 days, respectively, to test the stability of the crystal form. Samples are collected at the same point at 5th and 10th day to measure content by HPLC peak area normalization method. […] Samples are collected at the same point at 5th and 10th day to measure content by HPLC peak area normalization method. […] Samples are collected at the same point at 5th and 10th day to measure content by HPLC peak area normalization method.

Data set [3] in a line: Light stability (25° C., 4500 Lux), content by HPLC peak area normalization. On the procedure:
as §1

The nature of data set [4]: High-humidity stability (75% RH, 40° C.), content by HPLC peak area normalization. As to the method:
as §1

Data set [5] in a line: Hygroscopicity of compound of formula (I) prepared according to CN103819403B. The settings on record: within 10 min under a humidity of RH 45%. An excerpt: The inventors of the present invention prepared the compound of formula (I) according to the preparation method as described in CN103819403B, and carried out analysis. […] Especially, the prepared compound of formula (I) was found easy to decompose in environment of high temperature or high humidity or under strong lights, causing rapid decrease in the content of active ingredients. […] Therefore, a strict management would be required during use of the compound of formula (I), rendering the compound unsuitable for use as a bulk pharmaceutical chemical.

Structures are written as SMILES.

Take `CN1Cc2c(Cl)cc(Cl)cc2[C@@H](c2cccc(S(=O)(=O)NCCOCCOCCNC(=O)NCCCCNC(=O)NCCOCCOCCNS(=O)(=O)c3cccc([C@@H]4CN(C)Cc5c(Cl)cc(Cl)cc54)c3)c2)C1` [crystal form A]: in data set [1] (each RH 10% step of 10 min), the “weight change in each step of 10 min” value is recorded as “less than 0.02%”. The “Purity (%) after high-temperature stability test” value is recorded as 98.64% in data set [2] (5 days) and 98.72% in data set [2] (10 days). Further, the “Purity (%) after light stability test” value is 91.78% in data set [3] (5 days) and 89.07% in data set [3] (10 days). Besides, the “Purity (%) after high-humidity stability test” value in data set [4] (5 days) stood at 98.52%; in data set [4] (10 days), 98.56%.

As for `CN1Cc2c(Cl)cc(Cl)cc2[C@@H](c2cccc(S(=O)(=O)NCCOCCOCCNC(=O)NCCCCNC(=O)NCCOCCOCCNS(=O)(=O)c3cccc([C@@H]4CN(C)Cc5c(Cl)cc(Cl)cc54)c3)c2)C1` [compound of formula (I)], the “weight increase because of hygroscopicity” value in data set [5] is on record as “up to 2%”.

Take `CN1Cc2c(Cl)cc(Cl)cc2[C@@H](c2cccc(S(=O)(=O)NCCOCCOCCNC(=O)NCCCCNC(=O)NCCOCCOCCNS(=O)(=O)c3cccc([C@@H]4CN(C)Cc5c(Cl)cc(Cl)cc54)c3)c2)C1` [amorphous bulk pharmaceutical chemical]: the “weight increase due to moisture absorption” value in data set [1] (RH 0 to RH 90%, RH 10% per step, 10 min per step) is recorded as 7%. Moreover, the “Purity (%) after high-temperature stability test” value in data set [2] (5 days) is reported as 61.62%; in data set [2] (10 days), 58.98%. Further, the “Purity (%) after light stability test” value in data set [3] (5 days) amounted to 72.54%; in data set [3] (10 days) it was 71.99%. The “Purity (%) after high-humidity stability test” value in data set [4] (5 days) amounted to 81.63%; in data set [4] (10 days), 79.78%.
